Assay results reported in ChEMBL document CHEMBL6178012, “Discovery of RP-1664: A First-in-Class Orally Bioavailable, Selective PLK4 Inhibitor” (J Med Chem, 2025).
Values belong to the compound of their own block, whether it stands above or below them.

Key:
in vitro [1] = conditions: dog, MDCK
in vitro [2] = conditions: mouse, liver microsomes
MCF7 = assay: cells; conditions: Homo sapiens
in vitro [3] = conditions: human, cryopreserved hepatocytes
in vitro [4] = conditions: human, Caco-2
in vivo [5] = conditions: female, CD-1, mouse, iv, 1 mg/kg
in vivo [6] = conditions: female, CD-1, mouse, po, 5 mg/kg
in vitro [7] = conditions: human, Caco-2; remark: listed apart in the source
[8] = biological target: T1, Serine/threonine-protein kinase PLK4 (Homo sapiens) (UniProt O00444); conditions: Mus musculus; SCID-Beige; CAL-148; dose lower 6.0 mg/kg, dose upper […], route po, time 4.0 day
T1 sequence (whole entry): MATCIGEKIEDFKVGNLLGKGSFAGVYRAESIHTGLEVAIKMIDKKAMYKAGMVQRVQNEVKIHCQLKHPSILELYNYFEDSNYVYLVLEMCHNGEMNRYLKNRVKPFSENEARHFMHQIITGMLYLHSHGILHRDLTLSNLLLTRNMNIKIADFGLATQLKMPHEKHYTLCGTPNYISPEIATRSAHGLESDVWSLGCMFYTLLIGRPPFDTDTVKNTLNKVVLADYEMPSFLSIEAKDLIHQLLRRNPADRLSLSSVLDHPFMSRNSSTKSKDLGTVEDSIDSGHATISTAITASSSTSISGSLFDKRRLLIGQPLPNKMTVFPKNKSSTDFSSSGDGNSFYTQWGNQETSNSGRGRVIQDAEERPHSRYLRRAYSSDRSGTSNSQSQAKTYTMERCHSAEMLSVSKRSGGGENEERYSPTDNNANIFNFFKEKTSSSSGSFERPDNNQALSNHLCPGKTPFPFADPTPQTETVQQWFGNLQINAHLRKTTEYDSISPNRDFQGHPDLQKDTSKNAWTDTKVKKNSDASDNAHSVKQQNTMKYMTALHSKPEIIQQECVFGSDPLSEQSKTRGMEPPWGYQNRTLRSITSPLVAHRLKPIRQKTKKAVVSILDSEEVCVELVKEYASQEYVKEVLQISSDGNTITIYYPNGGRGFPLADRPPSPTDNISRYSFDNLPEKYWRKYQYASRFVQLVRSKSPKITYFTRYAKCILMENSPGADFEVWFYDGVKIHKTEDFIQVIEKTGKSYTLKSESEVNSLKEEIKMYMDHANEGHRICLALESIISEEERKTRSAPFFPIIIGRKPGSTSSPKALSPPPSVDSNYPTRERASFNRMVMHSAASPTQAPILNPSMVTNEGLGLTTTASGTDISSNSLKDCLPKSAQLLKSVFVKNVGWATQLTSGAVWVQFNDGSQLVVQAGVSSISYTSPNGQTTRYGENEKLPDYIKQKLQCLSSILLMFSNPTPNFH

in vivo [9] = conditions: male, Beagle, dog, iv, 0.5 mg/kg
in vitro [10] = conditions: dog, liver microsomes
in vivo [11] = conditions: cynomolgus monkey, po, 1.25 mg/kg
in vitro [12] = conditions: mouse, cryopreserved hepatocytes
in vitro [13] = conditions: rat, cryopreserved hepatocytes
in vitro [14] = conditions: dog, cryopreserved hepatocytes
in vivo [15] = conditions: male, Beagle, dog, po, 1.15 mg/kg
in vitro [16] = conditions: rat, liver microsomes
in vitro [17] = conditions: human, liver microsomes
in vivo [18] = conditions: cynomolgus monkey, iv, 0.5 mg/kg
[19] = biological target: T1, Serine/threonine-protein kinase PLK4 (Homo sapiens); conditions: Mus musculus; SCID-Beige; CAL-148; dose lower 6.0 mg/kg, dose upper […], route po, time 7.0 day
in vitro [20] = conditions: rhesus monkey, liver microsomes
in vitro [21] = conditions: rhesus monkey, cryopreserved hepatocytes
in vivo [22] = conditions: male, Sprague-Dawley, rat, po

Compound: COc1c(Nc2cc(C)[nH]n2)nc(Sc2ccc(S(C)(=O)=O)cc2F)nc1N1CCCCC1
Papp A→B at 2 h, 1 µM (in vitro [1]): 8.1 ×10⁻⁶ cm/s
microsomal CLint at 1 µM (in vitro [2]): 47 µL/min/mg

Compound: Cc1cc(Nc2nc(Nc3ccc(S(C)(=O)=O)cc3F)nc(-c3cnn(C)c3)c2C2CC2)n[nH]1
EC50 (MCF7): 1300 nM

Compound: C#Cc1cc(Nc2nc(N(C)c3c(F)cc(S(C)(=O)=O)cc3F)nc(-c3cnn(C)c3)c2C2CC2)n[nH]1
EC50 (MCF7): 230 nM
hepatocyte CLint at 1 µM (in vitro [3]): 20.4 µL/min/1e6 cells

Compound: Cc1cc(Nc2nc(Oc3ccc(S(C)(=O)=O)cc3F)nc(-c3cnn(C)c3)c2C2CC2)n[nH]1
EC50 (MCF7): 2500 nM

Compound: CN(c1nc(Nc2cc(C(F)F)[nH]n2)c(C2CC2)c(-c2cnn(C)c2)n1)c1c(F)cc(S(C)(=O)=O)cc1F
EC50 (MCF7): 860 nM

Compound: Cc1cc(Nc2nc(N(C)c3c(F)cc(S(C)(=O)=O)cc3F)nc(-c3cn(C)nc3CO)c2C2CC2)n[nH]1
hepatocyte CLint at 1 µM (in vitro [3]): 12.8 µL/min/1e6 cells

Compound: COc1c(Nc2cc(C)[nH]n2)nc(Sc2ccc(S(C)(=O)=O)cc2)nc1-c1cnn(C)c1
microsomal CLint at 1 µM (in vitro [2]): < 7.7 µL/min/mg

Compound: COc1c(Nc2cc(C)[nH]n2)nc(Sc2ccc(S(C)(=O)=O)cc2F)nc1N1CCOCC1
Papp A→B at 2 h, 1 µM (in vitro [1]): 14 ×10⁻⁶ cm/s
microsomal CLint at 1 µM (in vitro [2]): 31 µL/min/mg

Compound: Cc1cc(Nc2nc(N(C)c3ccc(S(C)(=O)=O)cc3Cl)nc(-c3cnn(C)c3)c2C2CC2)n[nH]1
EC50 (MCF7): 180 nM

Compound: COc1c(Nc2cc(C)[nH]n2)nc(Sc2ccc(S(=O)(=O)Cc3cccc([N+](=O)[O-])c3F)cc2F)nc1N1CCCCC1
Papp A→B at 2 h, 1 µM (in vitro [1]): 0.1 ×10⁻⁶ cm/s
microsomal CLint at 1 µM (in vitro [2]): > 416 µL/min/mg

Compound: Cc1cc(Nc2nc(Sc3ccc(S(C)(=O)=O)cc3F)nc(-c3cnn(C)c3)c2C2CC2)n[nH]1
EC50 (MCF7): 1700 nM

Compound: Cc1cc(Nc2nc(N(C)c3c(F)cc(S(C)(=O)=O)cc3F)nc(-c3cnn(C)c3CO)c2C2CC2)n[nH]1
EC50 (MCF7): 140 nM
clearance at 24 h (in vivo [5]): 15 mL/min/kg
hepatocyte CLint at 1 µM (in vitro [3]): 6 µL/min/1e6 cells
bioavailability at 24 h (in vivo [6]): 23%

Compound: Cc1cc(Nc2nc(N(C)c3c(F)cc(S(N)(=O)=O)cc3F)nc(-c3cnn(C)c3)c2C2CC2)n[nH]1
hepatocyte CLint at 1 µM (in vitro [3]): 19.4 µL/min/1e6 cells

Compound: COc1c(Nc2cc(C)[nH]n2)nc(Sc2ccc(S(C)(=O)=O)cc2F)nc1-c1cnn(C)c1
EC50 (MCF7): 890 nM
microsomal CLint at 1 µM (in vitro [2]): < 7.7 µL/min/mg

Compound: Cc1cc(Nc2nc(N(C)c3ccc(S(=O)(=O)C4CC4)cc3F)nc(-c3cnn(C)c3)c2C2CC2)n[nH]1
EC50 (MCF7): 210 nM
hepatocyte CLint at 1 µM (in vitro [3]): 8.2 µL/min/1e6 cells

Compound: Cc1cc(Nc2nc(N(C)c3cc(F)c(S(C)(=O)=O)cc3F)nc(-c3cnn(C)c3)c2C2CC2)n[nH]1
EC50 (MCF7): 160 nM
hepatocyte CLint at 1 µM (in vitro [3]): 42 µL/min/1e6 cells

Compound: Cc1cc(Nc2nc(N(C)c3c(F)cc(S(C)(=O)=O)cc3F)nc(N3CCOCC3)c2C2CC2)n[nH]1
EC50 (MCF7): 150 nM
hepatocyte CLint at 1 µM (in vitro [3]): 50.9 µL/min/1e6 cells

Compound: Cc1cc(Nc2nc(N(C)c3ccc(S(C)(=O)=O)cc3F)nc(-c3cnn(C)c3)c2C2CC2)n[nH]1
EC50 (MCF7): 430 nM

Results, then the compound that gave them:

EC50 (MCF7): 92 nM
hepatocyte CLint at 1 µM (in vitro [3]): 51.5 µL/min/1e6 cells
Compound: Cc1cc(Nc2nc(N(C)c3c(F)cc(S(C)(=O)=O)cc3F)nc(-c3ccnnc3)c2C2CC2)n[nH]1

EC50 (MCF7): 57 nM
hepatocyte CLint at 1 µM (in vitro [3]): 12 µL/min/1e6 cells
Compound: CN(c1nc(Nc2cc(C3CC3)[nH]n2)c(C2CC2)c(-c2cnn(C)c2)n1)c1c(F)cc(S(C)(=O)=O)cc1F

EC50 (MCF7): 67 nM
Compound: Cc1cc(Nc2nc(N(C)c3c(F)cc(S(C)(=O)=O)c(F)c3F)nc(-c3cnn(C)c3)c2C2CC2)n[nH]1

efflux ratio at […], 10 µM (in vitro [4]): 2.5
EC50 (MCF7): 34 nM
clearance at 24 h (in vivo [5]): 9 mL/min/kg
hepatocyte CLint at 1 µM (in vitro [3]): 7.5 µL/min/1e6 cells
bioavailability at 24 h (in vivo [6]): > 100%
Papp at […], 10 µM (in vitro [7]): 28 ×10⁻⁶ cm/s
Compound: Cc1cc(Nc2nc(N(C)c3c(F)cc(S(C)(=O)=O)cc3F)nc(-c3cn(C)c(C4CC4)n3)c2C2CC2)n[nH]1

efflux ratio at […], 10 µM (in vitro [4]): 6.9
EC50 (MCF7): 23 nM
clearance at 24 h (in vivo [5]): 12 mL/min/kg
hepatocyte CLint at 1 µM (in vitro [3]): 6 µL/min/1e6 cells
bioavailability at 24 h (in vivo [6]): 55%
Papp at […], 10 µM (in vitro [7]): 7.8 ×10⁻⁶ cm/s
Compound: Cc1cc(Nc2nc(N(C)c3c(F)cc(S(C)(=O)=O)cc3F)nc(-c3cc(C(C)(C)O)n(C)n3)c2C2CC2)n[nH]1

efflux ratio at […], 10 µM (in vitro [4]): 1.1
EC50 (MCF7): 65 nM
clearance at 24 h (in vivo [5]): 7 mL/min/kg
hepatocyte CLint at 1 µM (in vitro [3]): 5.3 µL/min/1e6 cells
bioavailability at 24 h (in vivo [6]): > 100%
Papp at […], 10 µM (in vitro [7]): 28 ×10⁻⁶ cm/s
Compound: Cc1cc(Nc2nc(N(C)c3c(F)cc(S(C)(=O)=O)cc3F)nc(-c3cnn(C)c3)c2C2CC2)n[nH]1

EC50 (MCF7): 83 nM
clearance at 24 h (in vivo [5]): 10 mL/min/kg
hepatocyte CLint at 1 µM (in vitro [3]): 50.1 µL/min/1e6 cells
bioavailability at 24 h (in vivo [6]): > 100%
Compound: Cc1cc(Nc2nc(N(C)c3c(F)cc(S(C)(=O)=O)cc3F)nc(-c3cn(C)nc3C)c2C2CC2)n[nH]1

efflux ratio at […], 10 µM (in vitro [4]): 4.4
EC50 (MCF7): 35 nM
clearance at 24 h (in vivo [5]): 3 mL/min/kg
hepatocyte CLint at 1 µM (in vitro [3]): < 3.8 µL/min/1e6 cells
bioavailability at 24 h (in vivo [6]): 40%
Papp at […], 10 µM (in vitro [7]): 12 ×10⁻⁶ cm/s
Compound: Cc1cc(Nc2nc(N(C)c3c(F)cc(S(C)(=O)=O)cc3F)nc(-c3cn4c(n3)COCC4)c2C2CC2)n[nH]1

efflux ratio at […], 10 µM (in vitro [4]): 8.1
EC50 (MCF7): 51 nM
clearance at 24 h (in vivo [5]): 11 mL/min/kg
inhibition [8]: Dose-dependent-effect
clearance at 24 h (in vivo [9]): 30 mL/min/kg
microsomal CLint at 1 µM (in vitro [10]): < 7.7 µL/min/mg
bioavailability at 24 h (in vivo [11]): 96%
hepatocyte CLint at 1 µM (in vitro [12]): < 3.8 µL/min/1e6 cells
hepatocyte CLint at 1 µM (in vitro [13]): < 3.8 µL/min/1e6 cells
hepatocyte CLint at 1 µM (in vitro [14]): < 3.8 µL/min/1e6 cells
bioavailability at 24 h (in vivo [15]): 98%
microsomal CLint at 1 µM (in vitro [16]): < 7.7 µL/min/mg
microsomal CLint at 1 µM (in vitro [17]): < 7.7 µL/min/mg
hepatocyte CLint at 1 µM (in vitro [3]): < 3.8 µL/min/1e6 cells
clearance at 24 h (in vivo [18]): 14 mL/min/kg
inhibition [19]: Dose-dependent-effect
microsomal CLint at 1 µM (in vitro [2]): < 7.7 µL/min/mg
microsomal CLint at 1 µM (in vitro [20]): < 7.7 µL/min/mg
bioavailability at 24 h (in vivo [6]): ≥ 100%
Papp at […], 10 µM (in vitro [7]): 4.6 ×10⁻⁶ cm/s
hepatocyte CLint at 1 µM (in vitro [21]): < 3.8 µL/min/1e6 cells
bioavailability at 24 h (in vivo [22]): 28%
Compound: Cc1cc(Nc2nc(N(C)c3c(F)cc(S(C)(=O)=O)cc3F)nc(-c3cn(C)cn3)c2C2CC2)n[nH]1
